Experimental findings from patent publication US20220370416A1, “COMPOUNDS AND METHODS FOR TARGETED DEGRADATION OF KRAS” (Arvinas Operations, Inc., priority 2020, published 2022) are described below.

The target of experiment [1] is T1, HiBit-KRAS^G12C (Homo sapiens, UniProt P01116, G12C). The experiment in a line: HiBit degradation assay in MiaPaCa-2 HiBit-KRas^G12C cells. It counts as cell-based. Conditions: 24 hours; for KRas^G12C-HiBiT (MiaPaCa; 0.5% DMSO) DMax / Dmax: maximum degradation. The essentials: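 DC50 and Dmax come from 4-parameter fits of DMSO-normalized HiBit luminescence after 24 hours' exposure at 37° C to 10 μM–20 nM compound in 0.1% or 0.5% DMSO. Cells: MiaPaCa-2 carrying one endogenously HiBit-tagged KRAS^G12C allele; concentrations causing ≥50% […] viability loss (alamar blue) excluded.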
Background: With HiBiT, luminescence reflects the tagged protein that the partner subunit can reach.

Experiment [2] concerns the target T1, HiBit-KRAS^G12C. The experiment in a line: HiBit degradation assay in SW1573 HiBit-KRas^G12C cells. Type of experiment: cell-based. Further details: expressed in transfected cells; host or cells: SW1573 (clone E6), modified pcDNA3.1 vector, TK promoter. The note with it: 24 hours. The method in brief:
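HiBit-KRAS G12C degradation was measured after a 24 h compound exposure (titrated 10 μM–20 nM) in engineered SW1573 cells. Lytic HiBit luminescence, expressed relative to DMSO controls, yielded DC50 and Dmax from 4-parameter fits. Concentrations causing ≥50% loss in alamar blue viability were omitted as cytotoxic.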

Where [3] appears, read: MiaPaCa-2 HiBit-KRas^G12C cells, 0.5% DMSO.
Setting [4] is: SW1573 HiBit-KRas^G12C, 0.5% DMSO.
The mark [5] stands for this setting: read-out: KRas^G12C-HiBiT (MiaPaCa; 0.5% DMSO) IC50, MiaPaCa-2 HiBit-KRas^G12C cells, 0.5% DMSO.
Where [6] appears, read: read-out: KRas^G12C-HiBiT (SW1573; 0.5% DMSO) IC50***, SW1573 HiBit-KRas^G12C, 0.5% DMSO.
[7] abbreviates: MIA PaCa-2, MiaPaCa-2 HiBit-KRas^G12C cells, 0.5% DMSO, read-out: KRas^G12C-HiBiT (MiaPaCa; 0.5% DMSO) DMax.
Where [8] appears, read: SW1573 HiBit-KRas^G12C, 0.1% DMSO, read-out: KRas^G12C-HIBit (SW1573; 0.1% DMSO) DC50*.
Where [9] appears, read: MIA PaCa-2, read-out: KRas^G12C-HiBiT (MiaPaCa; 0.1% DMSO) DMax, MiaPaCa-2 HiBit-KRas^G12C cells, 0.1% DMSO.

T1 sequence (P01116 1-186 isoform P01116-2 G12C limits assumed): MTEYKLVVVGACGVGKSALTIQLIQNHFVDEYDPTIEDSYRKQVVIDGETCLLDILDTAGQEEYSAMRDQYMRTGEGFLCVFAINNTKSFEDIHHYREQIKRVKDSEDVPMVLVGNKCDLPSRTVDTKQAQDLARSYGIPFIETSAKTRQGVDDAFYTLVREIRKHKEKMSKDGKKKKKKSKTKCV

With `C=CC(=O)N1CCN(c2nc(OCCN3CCC(COCC(=O)N[C@H](C(=O)N4C[C@H](O)C[C@H]4C(=O)N[C@@H](C)c4ccc(-c5scnc5C)cc4)C(C)(C)C)CC3)nc3c(F)c(-c4cc(O)cc5ccccc45)c(Cl)cc23)C[C@@H]1CC#N` (atropisomer, axis not shown) [Compound 163, (2S,4R)-1-[(2S)-2-[2-({1-[2-({6-chloro-4-[(3S)-3-(cyanomethyl)-4-(prop-2-enoyl)piperazin-1-yl]-8-fluoro-7-(3-hydroxynaphthalen-1-yl)quinazolin-2-yl}oxy)ethyl]piperidin-4-yl}methoxy)acetamido]-3,3-dimethylbutanoyl]-4-hydroxy-N-[(1S)-1-[4-(4-methyl-1,3-thiazol-5-yl)phenyl]ethyl]pyrrolidine-2-carboxamide], the “KRas^G12C-HiBiT (MiaPaCa; 0.5% DMSO) DMax” value on HiBit-KRAS^G12C [1] (setting [3]) is “A (A ≥ 70)”. Moreover, the “KRas^G12C-HiBiT (SW1573; 0.5% DMSO) Dmax**” value at HiBit-KRAS^G12C [2] (setting [4]) is reported as “A (A ≥ 70)”.

In the case of `C=C(F)C(=O)N1CCN(c2nc(OCCN3CCC(COc4cc([C@H](C(=O)N5C[C@H](O)C[C@H]5C(=O)N[C@@H](C)c5ccc(-c6scnc6C)cc5)C(C)C)on4)CC3)nc3c(F)c(-c4cc(O)cc5ccccc45)c(Cl)cc23)C[C@@H]1CC#N` (atropisomer, axis not shown) [Compound 166, (2S,4R)-1-[(2R)-2-[3-({1-[2-({6-chloro-4-[(3S)-3-(cyanomethyl)-4-(2-fluoroprop-2-enoyl)piperazin-1-yl]-8-fluoro-7-(3-hydroxynaphthalen-1-yl)quinazolin-2-yl}oxy)ethyl]piperidin-4-yl}methoxy)-1,2-oxazol-5-yl]-3-methylbutanoyl]-4-hydroxy-N-[(1S)-1-[4-(4-methyl-1,3-thiazol-5-yl)phenyl]ethyl]pyrrolidine-2-carboxamide], the DC50 at HiBit-KRAS^G12C [1] (setting [5]) is above 1000 nM; at HiBit-KRAS^G12C [2] (setting [6]), 100 to 1000 nM. Moreover, the “KRas^G12C-HiBiT (SW1573; 0.5% DMSO) Dmax**” value at HiBit-KRAS^G12C [2] (setting [4]) is on record as “B (35 < B < 70)”.

In the case of `C=C(F)C(=O)N1CCN(c2nc(OCCN3CCC(COc4cc([C@H](C(=O)N5C[C@H](O)C[C@H]5C(=O)N[C@@H](C)c5ccc(-c6scnc6C)cc5)C(C)C)on4)CC3)nc3c(F)c(-c4cc(O)cc5ccccc45)c(Cl)cc23)C[C@@H]1CC#N` (atropisomer, axis not shown) [Compound 167, (2S,4R)-1-[(2R)-2-[3-({1-[2-({6-chloro-4-[(3S)-3-(cyanomethyl)-4-(2-fluoroprop-2-enoyl)piperazin-1-yl]-8-fluoro-7-(3-hydroxynaphthalen-1-yl)quinazolin-2-yl}oxy)ethyl]piperidin-4-yl}methoxy)-1,2-oxazol-5-yl]-3-methylbutanoyl]-4-hydroxy-N-[(1S)-1-[4-(4-methyl-1,3-thiazol-5-yl)phenyl]ethyl]pyrrolidine-2-carboxamide], the Dmax on HiBit-KRAS^G12C [1] (setting [7]) is above 70%. Also, the DC50 on HiBit-KRAS^G12C [1] (setting [5]) and on HiBit-KRAS^G12C [2] (setting [6]) was below 100 nM throughout. Further, on HiBit-KRAS^G12C [2] (setting [4]), the “KRas^G12C-HiBiT (SW1573; 0.5% DMSO) Dmax**” value is listed as “A (A ≥ 70)”.

`C=CC(=O)N1CCN(c2nc(OCCN3CCC(COc4cc([C@H](C(=O)N5C[C@H](O)C[C@H]5C(=O)N[C@@H](C)c5ccc(-c6scnc6C)cc5)C(C)C)on4)CC3)nc3c(F)c(-c4cc(O)cc5ccccc45)c(Cl)cc23)C[C@@H]1CC#N` (atropisomer, axis not shown) [Compound 173, (2S,4R)-1-[(2R)-2-[3-({1-[2-({6-chloro-4-[(3S)-3-(cyanomethyl)-4-(prop-2-enoyl)piperazin-1-yl]-8-fluoro-7-(3-hydroxynaphthalen-1-yl)quinazolin-2-yl}oxy)ethyl]piperidin-4-yl}methoxy)-1,2-oxazol-5-yl]-3-methylbutanoyl]-4-hydroxy-N-[(1S)-1-[4-(4-methyl-1,3-thiazol-5-yl)phenyl]ethyl]pyrrolidine-2-carboxamide]: at HiBit-KRAS^G12C [1] (setting [3]), the “KRas^G12C-HiBiT (MiaPaCa; 0.5% DMSO) DMax” value is listed as “A (A ≥ 70)”. For the same compound, the DC50 on HiBit-KRAS^G12C [1] (setting [5]) and at HiBit-KRAS^G12C [2] (setting [6]) was below 100 nM throughout. Also, at HiBit-KRAS^G12C [2] (setting [4]), the “KRas^G12C-HiBiT (SW1573; 0.5% DMSO) Dmax**” value is on record as “A (A ≥ 70)”.

Take `C=CC(=O)N1CCN(c2nc(OCCN3CCC(OCCOc4cc([C@H](C(=O)N5C[C@H](O)C[C@H]5C(=O)N[C@@H](C)c5ccc(-c6scnc6C)cc5)C(C)C)on4)CC3)nc3c(F)c(-c4cc(O)cc5ccccc45)c(Cl)cc23)C[C@@H]1CC#N` (single isomer, unassigned) [Compound 21]: the Dmax at HiBit-KRAS^G12C [1] (MIA PaCa-2, MiaPaCa-2 HiBit-KRas^G12C cells, 0.1% DMSO, read-out: KRas^G12C-HiBiT (MiaPaCa; 0.1% DMSO) DMax) is above 70%; on HiBit-KRAS^G12C [1] (setting [7]), above 70%; at HiBit-KRAS^G12C [2] (SW1573, SW1573 HiBit-KRas^G12C, 0.1% DMSO, read-out: KRas^G12C-HiBit (SW1573; 0.1% DMSO) Dmax**), above 70%; at HiBit-KRAS^G12C [2] (SW1573, SW1573 HiBit-KRas^G12C, 0.5% DMSO, read-out: KRas^G12C-HiBiT (SW1573; 0.5% DMSO) Dmax**) it was above 70%. The DC50 at HiBit-KRAS^G12C [2] (setting [8]) is 100 to 1000 nM.

As for `C=CC(=O)N1CCN(c2nc(OCCN3CCC(OCCOc4cc([C@@H](C(=O)N5C[C@@H](O)C[C@H]5C(=O)N[C@@H](C)c5ccc(-c6scnc6C)cc5)C(C)C)on4)CC3)nc3c(F)c(-c4cc(O)cc5ccccc45)c(Cl)cc23)C[C@@H]1CC#N` [Compound 5, (2S,4S)-1-[(2S)-2-{3-[2-({1-[2-({6-chloro-4-[(3S)-3-(cyanomethyl)-4-(prop-2-enoyl)piperazin-1-yl]-8-fluoro-7-(3-hydroxynaphthalen-1-yl)quinazolin-2-yl}oxy)ethyl]piperidin-4-yl}oxy)ethoxy]-1,2-oxazol-5-yl}-3-methylbutanoyl]-4-hydroxy-N-[(1S)-1-[4-(4-methyl-1,3-thiazol-5-yl)phenyl]ethyl]pyrrolidine-2-carboxamide], the Dmax on HiBit-KRAS^G12C [1] (setting [9]) was below 35%. The DC50 is 100 to 1000 nM at HiBit-KRAS^G12C [1] (read-out: KRas^G12C-HiBiT (MiaPaCa; 0.1% DMSO) IC50, MiaPaCa-2 HiBit-KRas^G12C cells, 0.1% DMSO) and above 1000 nM on HiBit-KRAS^G12C [2] (setting [8]).

On to `C=CC(=O)N1CCN(c2nc(OCCN3CCC(COCC(=O)N[C@H](C(=O)N4C[C@@H](O)C[C@H]4C(=O)N[C@@H](C)c4ccc(-c5scnc5C)cc4)C(C)(C)C)CC3)nc3c(F)c(-c4cc(O)cc5ccccc45)c(Cl)cc23)C[C@@H]1CC#N` [Compound 6, (2S,4S)-1-[(2S)-2-[2-({1-[2-({6-chloro-4-[(3S)-3-(cyanomethyl)-4-(prop-2-enoyl)piperazin-1-yl]-8-fluoro-7-(3-hydroxynaphthalen-1-yl)quinazolin-2-yl}oxy)ethyl]piperidin-4-yl}methoxy)acetamido]-3,3-dimethylbutanoyl]-4-hydroxy-N-[(1S)-1-[4-(4-methyl-1,3-thiazol-5-yl)phenyl]ethyl]pyrrolidine-2-carboxamide], for which the Dmax on HiBit-KRAS^G12C [1] (setting [9]) lay within 35 to 70%. Moreover, on HiBit-KRAS^G12C [2] (setting [8]), the DC50 was above 1000 nM.

Turning to `C=CC(=O)N1CCN(c2nc(OCCN3CCC(OCCOCC(=O)N[C@H](C(=O)N4C[C@@H](O)C[C@H]4C(=O)N[C@@H](C)c4ccc(-c5scnc5C)cc4)C(C)(C)C)CC3)nc3c(F)c(-c4cc(O)cc5ccccc45)c(Cl)cc23)C[C@@H]1CC#N` [Compound 7, (2S,4S)-1-[(2S)-2-{2-[2-({1-[2-({6-chloro-4-[(3S)-3-(cyanomethyl)-4-(prop-2-enoyl)piperazin-1-yl]-8-fluoro-7-(3-hydroxynaphthalen-1-yl)quinazolin-2-yl}oxy)ethyl]piperidin-4-yl}oxy)ethoxy]acetamido}-3,3-dimethylbutanoyl]-4-hydroxy-N-[(1S)-1-[4-(4-methyl-1,3-thiazol-5-yl)phenyl]ethyl]pyrrolidine-2-carboxamide], the Dmax at HiBit-KRAS^G12C [1] (setting [9]) lay in the range of 35 to 70%. For the same compound, the DC50 at HiBit-KRAS^G12C [2] (setting [8]) is above 1000 nM.

Consider `C=CC(=O)N1CCN(c2nc(O[C@H](C)CN3CCC(COCC(=O)N[C@H](C(=O)N4C[C@H](O)C[C@H]4C(=O)N[C@@H](C)c4ccc(-c5scnc5C)cc4)C(C)(C)C)CC3)nc3c(F)c(-c4cc(O)cc5cccc(C)c45)c(Cl)cc23)CC1` [Compound 11, (2S,4R)-1-[(2S)-2-[2-({1-[(2R)-2-{[6-chloro-8-fluoro-7-(3-hydroxy-8-methylnaphthalen-1-yl)-4-[4-(prop-2-enoyl)piperazin-1-yl]quinazolin-2-yl]oxy}propyl]piperidin-4-yl}methoxy)acetamido]-3,3-dimethylbutanoyl]-4-hydroxy-N-[(1S)-1-[4-(4-methyl-1,3-thiazol-5-yl)phenyl]ethyl]pyrrolidine-2-carboxamide], for which the Dmax at HiBit-KRAS^G12C [1] (setting [9]) lay within 35 to 70%; at HiBit-KRAS^G12C [2] (SW1573, read-out: KRas^G12C-HiBit (SW1573; 0.1% DMSO) Dmax**, SW1573 HiBit-KRas^G12C, 0.1% DMSO) it was 35 to 70%. Also, the DC50 at HiBit-KRAS^G12C [2] (setting [8]) is 100 to 1000 nM.
